Experimental data taken from patent US20160341734A1, “USE OF FLUOROQUINOLONE ANTIBIOTICS” (POSTECH ACADEMY-INDUSTRY FOUNDATION, priority 2015, published 2016).
Where a name gives a salt, the structure may show the parent alone.

Legend:
pseudomonas = assay: multi-photon fluorescence in bacteria; type: cell-based
Description: (§1) Bacteria (pseudomonas and staphylococcus) used in the experiment, hydrochloride moxifloxacin, and a biaxial scanner (a galvano scanner of x axis and a galvano scanner of y axis) to be used by a point scanning method were prepared.
(§2) In this Experimental Example, a two-photon microscope using a femtosecond laser as a light source was used, and the multi-photon fluorescence was equally measured under the following condition throughout an experimental process.
(§3) Excitation wavelength: 780 nm for vigamox(moxifloxacin)
(§4) The bacteria were incubated under the following condition.
pseudomonas-nutrient broth (nutrient medium)
(§5) 1. A bacteria stock was put in a medium of 3 mL and cultured after overnight incubation (37° C. and 200 rpm).
(§6) 2. Here, 0.03 mL of the cultured bacteria stock was taken and put in a fresh medium of 3 mL, and then cultured (37° C. and 200 rpm) up to OD600=1.5.
3. […]
(§7) In order to compare fluorescence expression of hydrochloride moxifloxacin with auto-fluorescence expression of bacteria, fluorescence expression of bacteria (pseudomonas and staphylococcus) which are not applied with hydrochloride moxifloxacin was first photographed and intensity of the auto-fluorescence expression was recorded. Subsequently, the hydrochloride moxifloxacin was administered to the medium and then the intensity of the fluorescence expression after the incubation time was measured.

staphylococcus = assay: multi-photon fluorescence in bacteria; type: cell-based
Description: as §1, §2, §3, §4
staphylococcus-lysogeny broth (LB medium)
as §5, §6
3. […]
as §7

[1] = two-photon excitation and emission spectrum of the antibiotics (femtosecond laser); type: physicochemical
Excerpt: 3A illustrates an excitation spectrum of hydrochloride moxifloxacin and gatifloxacin. Here, an X axis represents a wavelength (nm) of a femtosecond laser light source used in the experiment, and a degree (a.u.) of two-photon excited fluorescence (TPF) at 700 nm to 800 nm which is a measuring range of a femtosecond laser wavelength is illustrated as a Y axis. Through the graph, it can be seen that hydrochloride moxifloxacin and gatifloxacin may represent fluorescent signals in the light source having a range of 700 nm to 800 nm which is a near-infrared wavelength. Further, in the case where the wavelength of the light source is 700 nm as shown in the intensity of the excited fluorescence graph of the Y axis, it can be seen that a fluorescent signal stronger than other wavelengths is shown. FIG. 3B illustrates an emission spectrum representing a fluorescence expression degree of each antibiotic when the femtosecond laser is applied to hydrochloride moxifloxacin and gatifloxacin. The X axis represents a wavelength (nm) and the Y axis represents the degree (a.u.) of the TPF. In the graph, in the hydrochloride moxifloxacin and the gatifloxacin, it can be seen that the fluorescent signals having wavelengths of 450 nm to 550 nm are frequently expressed and the wavelength of about 520 nm is expressed most strongly.

[2] = test system: corneal cells of the mouse; assay: multi-photon fluorescence of corneal cells after dropping the antibiotic in the eye; type: in vivo
Description: Blab/c female mice after five or six weeks, gatifloxacin, hydrochloride moxifloxacin, and a multi-photon microscope including a biaxial scanner (a galvano scanner of x axis and a galvano scanner of y axis) to be used by a point scanning method were prepared.
In this Experimental Example, a two-photon microscope using a femtosecond laser as a light source was used and the multi-photon fluorescence was equally measured under the following condition throughout an experimental process.
Excitation wavelength: 780 nm for vigamox (moxifloxacin)
In order to compare fluorescence expression of hydrochloride moxifloxacin with auto-fluorescence expression of the corneal cells of the mouse, the corneal cells of the mouse which are not applied with hydrochloride moxifloxacin were first photographed.
The Blab/c mouse to be used in the experiment was anesthetized and then fixed to an eye holder for photographing the eye, and photographed by the two-photon microscope. Laser power was set as 30.8 mW, and in this case, the intensity of auto-fluorescence of the photographed mouse cornea was recorded.
In order to measure the fluorescence expression degree of the mouse cornea by vigamox (hydrochloride moxifloxacin), hydrochloride moxifloxacin of 10 μl was dropped in a left eye of the mouse and an eyelid was closed for 30 seconds. […]

[3] = single-photon fluorescence, ultraviolet-ray area; cited from earlier work

Row | emission wavelength expressed most strongly ([1]; two-photon emission spectrum) | light source wavelength with fluorescent signal stronger than other wavelengths ([1]; two-photon excitation spectrum, 700 nm to 800 nm measured) [nm] | Compound | difference in signal intensity after versus before administering (pseudomonas) | fluorescence signal intensity after administering (pseudomonas; FIG. 18, before administering 9.5334 a.u.) [a.u.] | difference in signal intensity after versus before administering (staphylococcus) [times] | fluorescence signal intensity after administering (staphylococcus; FIG. 18, before administering 10.4277 a.u.) [a.u.] | fluorescence intensity in corneal endothelium layer versus auto-fluorescence ([2]; corneal endothelium layer, FIGS. 5E, 6E vs 4E) | intensity of fluorescence expression in cornea versus auto-fluorescence ([2]; laser power 30.8 mW, same as auto-fluorescence) | excited light expressing the fluoroquinolone antibiotics (wavelength) [3] [nm]
1 |  |  | COc1c(N2C[C@@H]3CCCN[C@@H]3C2)c(F)cc2c(=O)c(C(=O)O)cn(C3CC3)c12 [hydrochloride moxifloxacin, moxifloxacin] | about 10 times | 101.2196 | 10 | 110.3189 |  |  | 
2 | about 520 nm | 700 | COc1c(N2CCNC(C)C2)c(F)cc2c(=O)c(C(=O)O)cn(C3CC3)c12 (stereo not drawn) [gatifloxacin] |  |  |  |  | higher than the fluorescence intensity of the auto-fluorescence expression | much larger than that of the auto-fluorescence expression | 292
